Experimental data as given in article PMC3743159 (Chemmedchem, 2013).

tested on: STS; assay: not given; conditions: read-out: STS IC50; placental microsome preparation; cited from earlier work

Compound | IC50
C[C@]12CC[C@@H]3c4cc(C(F)F)c(OS(N)(=O)=O)cc4CC[C@H]3[C@@H]1CCC2=O [2-difluoromethyloestrone 3-O-sulfamate] | 0.1 nM

tested on: not given; assay: not given; conditions: not given

melting point | Compound
182 to 185 °C | Oc1ccc(CN(c2ccc3c(c2)OC(F)(F)O3)n2cnnc2)cc1 [Compound 22 e, 4-{[(2,2-Difluorobenzo[1,3]dioxol-5-yl)-[1,2,4]triazol-4-ylamino]methyl}phenol]

target: T1, STS (Homo sapiens, UniProt P08842); assay: In vitro inhibition of STS; assay type: cell-based; conditions: STS IC50, JEG-3 cell preparation; sulfamates
T1 sequence (P08842 22-583): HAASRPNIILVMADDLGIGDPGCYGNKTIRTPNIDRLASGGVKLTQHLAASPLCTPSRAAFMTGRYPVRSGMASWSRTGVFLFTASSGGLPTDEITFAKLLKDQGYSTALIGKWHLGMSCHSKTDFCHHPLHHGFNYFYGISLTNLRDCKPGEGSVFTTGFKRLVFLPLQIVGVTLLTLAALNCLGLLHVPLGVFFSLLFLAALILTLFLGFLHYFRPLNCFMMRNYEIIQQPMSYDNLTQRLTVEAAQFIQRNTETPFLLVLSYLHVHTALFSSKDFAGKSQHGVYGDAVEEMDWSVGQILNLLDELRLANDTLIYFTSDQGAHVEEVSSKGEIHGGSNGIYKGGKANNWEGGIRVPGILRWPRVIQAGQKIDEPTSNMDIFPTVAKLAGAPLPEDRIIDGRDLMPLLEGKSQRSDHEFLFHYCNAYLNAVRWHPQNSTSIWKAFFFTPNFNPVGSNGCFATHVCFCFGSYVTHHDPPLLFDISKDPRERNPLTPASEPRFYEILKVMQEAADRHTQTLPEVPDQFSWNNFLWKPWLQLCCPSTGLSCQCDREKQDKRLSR

Compound | IC50
N#Cc1ccc(N(Cc2ccc(OS(N)(=O)=O)cc2Cl)n2cnnc2)cc1 [Compound 17, 3-Chloro-4-{[(4-cyanophenyl)(4H-1,2,4-triazol-4-yl)amino]methyl}phenyl sulfamate] | 40 ± 5 nM
N#Cc1ccc(N(Cc2ccc(OS(N)(=O)=O)c(C(F)F)c2)n2cnnc2)cc1 [Compound 15, 4-{[(4-Cyanophenyl)(4H-1,2,4-triazol-4-yl)amino]methyl}-2-(difluoromethyl)phenyl sulfamate] | 60 ± 2.4 nM
N#Cc1ccc(N(Cc2c(F)cc(OS(N)(=O)=O)cc2F)n2cnnc2)cc1 [Compound 12, 4-{[(4-Cyanophenyl)(4H-1,2,4-triazol-4-yl)amino]methyl}-3,5-difluorophenyl sulfamate] | 39 ± 1 nM
N#Cc1ccc(N(Cc2ccc(OS(N)(=O)=O)c(F)c2F)n2cnnc2)cc1 [Compound 13, 4-{[(4-Cyanophenyl)(4H-1,2,4-triazol-4-yl)amino]methyl}-2,3-difluorophenyl sulfamate] | 48 ± 2 nM
N#Cc1ccc(N(Cc2ccc(OS(N)(=O)=O)cc2F)n2cnnc2)cc1 [Compound 11, 4-{[(4-Cyanophenyl)(4H-1,2,4-triazol-4-yl)amino]methyl}-3-fluorophenyl sulfamate] | 21 ± 3.5 nM

Second part, the compound after the results:

IC50 | Compound
29 ± 2 nM | N#Cc1ccc(N(Cc2ccc(OS(N)(=O)=O)cc2Br)n2cnnc2)cc1 [Compound 19, 3-Bromo-4-{[(4-cyanophenyl)(4H-1,2,4-triazol-4-yl)amino]methyl}phenyl sulfamate]
52 ± 6.6 nM | NS(=O)(=O)Oc1ccc(CN(c2ccc3c(c2)OC(F)(F)O3)n2cnnc2)cc1 [Compound 22, 4-{[(2,2-Difluorobenzo[d][1,3]dioxol-5-yl)(4H-1,2,4-triazol-4-yl)amino]methyl}phenyl sulfamate]
45 ± 5 nM | NS(=O)(=O)Oc1ccc(CN(c2cc(F)cc(F)c2)n2cnnc2)cc1 [Compound 21, 4-{[(3,5-Difluorophenyl)(4H-1,2,4-triazol-4-yl)amino]methyl}phenyl sulfamate]
44 ± 6 nM | N#Cc1ccc(N(Cc2c(Cl)cc(OS(N)(=O)=O)cc2Cl)n2cnnc2)cc1 [Compound 18, 3,5-Dichloro-4-{[(4-cyanophenyl)(4H-1,2,4-triazol-4-yl)amino]methyl}phenyl sulfamate]
1560 ± 116 nM | NS(=O)(=O)Oc1ccc(CN(c2ccccc2)n2cnnc2)cc1 [Compound 20, 4-{[Phenyl(4H-1,2,4-triazol-4-yl)amino]methyl}phenyl sulfamate]
